Reference: ChEMBL document CHEMBL3797164, “Transfer of SAR information from hypotensive indazole to indole derivatives acting at α-adrenergic receptors: In vitro and in vivo studies” (Eur J Med Chem, 2016)

What was measured:
[1] = molecular target: T1, Adrenergic receptor alpha-2 (Homo sapiens, UniProt P08913+P18825+P18089); experiment: Agonist activity at human recombinant Alpha-2 adrenergic receptor expressed in CHOK1 cells after 30 mins by [35S]GTPgammaS binding assay; assay type: functional, cell-based; conditions: cho-k1
T1 sequence (P08913 whole entry): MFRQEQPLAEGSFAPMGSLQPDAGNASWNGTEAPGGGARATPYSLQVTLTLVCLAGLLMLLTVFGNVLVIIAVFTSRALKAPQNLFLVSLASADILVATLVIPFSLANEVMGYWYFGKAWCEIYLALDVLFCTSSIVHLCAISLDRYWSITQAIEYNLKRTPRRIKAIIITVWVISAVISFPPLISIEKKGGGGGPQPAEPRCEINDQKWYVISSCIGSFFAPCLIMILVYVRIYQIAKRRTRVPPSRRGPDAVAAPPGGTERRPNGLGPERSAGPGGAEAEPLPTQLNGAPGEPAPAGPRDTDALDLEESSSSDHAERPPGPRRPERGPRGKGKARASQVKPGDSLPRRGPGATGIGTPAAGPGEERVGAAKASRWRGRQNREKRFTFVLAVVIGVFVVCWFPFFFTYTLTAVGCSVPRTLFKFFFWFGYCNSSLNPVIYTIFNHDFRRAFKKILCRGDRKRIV
T1 sequence (P18825 whole entry): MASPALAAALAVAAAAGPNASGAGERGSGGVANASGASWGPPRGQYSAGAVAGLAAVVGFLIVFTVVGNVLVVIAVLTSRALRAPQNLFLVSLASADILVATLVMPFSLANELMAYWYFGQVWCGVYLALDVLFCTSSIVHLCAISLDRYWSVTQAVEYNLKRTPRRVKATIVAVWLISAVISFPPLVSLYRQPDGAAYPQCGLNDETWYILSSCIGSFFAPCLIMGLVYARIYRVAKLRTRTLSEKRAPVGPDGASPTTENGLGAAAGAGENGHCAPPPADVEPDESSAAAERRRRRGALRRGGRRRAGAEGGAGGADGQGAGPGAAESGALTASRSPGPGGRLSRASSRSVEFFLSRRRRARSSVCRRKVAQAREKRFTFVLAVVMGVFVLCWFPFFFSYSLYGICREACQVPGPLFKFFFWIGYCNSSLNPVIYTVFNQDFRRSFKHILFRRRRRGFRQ
T1 sequence (P18089 whole entry): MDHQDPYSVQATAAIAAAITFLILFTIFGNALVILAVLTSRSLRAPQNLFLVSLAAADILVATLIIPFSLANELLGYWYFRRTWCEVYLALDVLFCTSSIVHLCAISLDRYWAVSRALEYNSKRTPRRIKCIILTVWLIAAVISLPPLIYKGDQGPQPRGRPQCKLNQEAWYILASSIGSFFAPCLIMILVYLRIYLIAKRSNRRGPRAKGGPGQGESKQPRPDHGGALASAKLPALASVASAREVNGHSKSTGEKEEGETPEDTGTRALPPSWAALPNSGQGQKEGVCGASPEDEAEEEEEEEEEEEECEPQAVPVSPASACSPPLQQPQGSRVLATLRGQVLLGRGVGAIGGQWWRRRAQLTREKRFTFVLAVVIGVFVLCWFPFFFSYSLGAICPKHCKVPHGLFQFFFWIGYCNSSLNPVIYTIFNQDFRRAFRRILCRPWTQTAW

Rattus norvegicus [2] = experiment: Neurotoxicity in Sprague-Dawley rat assessed as induction of sedative-hypnotic state at 10 to 500 ug/kg, ip after 30 mins by LORR test; assay type: toxicity, organism-based; conditions: in vivo, 0.5 h
Rattus norvegicus [3] = experiment: Neurotoxicity in Sprague-Dawley rat assessed as induction of hind limb flexion at 1000 to 1500 ug/kg, ip after 15 to 30 mins by LORR test; assay type: toxicity, organism-based, Hindlimb; conditions: in vivo
Rattus norvegicus [4] = experiment: Neurotoxicity in Sprague-Dawley rat assessed as exploratory behaviour changes at 10 to 2000 ug/kg, ip after 30 mins by LORR test; assay type: toxicity, organism-based; conditions: in vivo, 0.5 h
Rattus norvegicus [5] = experiment: Neurotoxicity in Sprague-Dawley rat assessed as induction of forpaw grasping reflex at 1000 to 1500 ug/kg, ip after 15 to 30 mins by LORR test; assay type: toxicity, organism-based; conditions: in vivo
Rattus norvegicus [6] = experiment: Neurotoxicity in Sprague-Dawley rat assessed as induction of resistance to lateral push at 1000 to 1500 ug/kg, ip after 15 to 30 mins by LORR test; assay type: toxicity, organism-based; conditions: in vivo

Row | Compound | EC50 [1] [nM] | Activity (Rattus norvegicus [2]) | Activity (Rattus norvegicus [3]) | Activity (Rattus norvegicus [4]) | Activity (Rattus norvegicus [5]) | Activity (Rattus norvegicus [6])
1 | Br.Cc1cccc2ccn(CC3=NCCN3)c12 | 7.9 | – | – | – | – | –
2 | Cl.Clc1cccc2ccn(CC3=NCCN3)c12 | 3600 | Non-toxic | Toxic | Non-toxic | Non-toxic | Non-toxic
